In patent US20260207554A1 (priority 2022, published 2026):
Structures can show the parent of a compound that is named as a salt.

Test system: adult nondependent recreational opioid users
Conditions: in vivo

| SMILES | Skin and subcutaneous tissue disorders, subjects with TEAE n (%) (human) | Abdominal pain upper, subjects with TEAE n (%) (human, po) | Dizziness, subjects with TEAE n (%) (human, po) | Gastrointestinal disorders, subjects with TEAE n (%) (human, po) | Generalised tonic-clonic seizure, subjects with TEAE n (%) (human, po) | Headache, subjects with TEAE n (%) (human, po) | Hiccups, subjects with TEAE n (%) (human, po) | Nervous system disorders, subjects with TEAE n (%) (human, po) | Number of subjects with at least one TEAE, n (%) (human, po) | Somnolence, subjects with TEAE n (%) (human, po) | Tension headache, subjects with TEAE n (%) (human, po) | Toothache, subjects with TEAE n (%) (human, po) | Tremor, subjects with TEAE n (%) (human, po) | Uvulitis, subjects with TEAE n (%) (human, po) | Vertigo, subjects with TEAE n (%) (human, po) | Vomiting, subjects with TEAE n (%) (human, po) | feeling hot, incidence of subjects (human, po) [%] | hot flush, incidence of subjects (human, po) [%] | subjects who experienced seizures (po) |
| --- | --- | --- | --- | --- | --- | --- | --- | --- | --- | --- | --- | --- | --- | --- | --- | --- | --- | --- | --- |
| COc1ccc2c3c1O[C@H]1C(=O)CC[C@@]4(O)[C@@H](C2)N(C)CC[C@]314.Cl [Oxycodone HCl] | (29.5%) | 0 | (9.1%) | (27.3%) | 0% | (4.5%) | (6.8%) | (22.7%) | (56.8%) | (9.1%) | 0 | 0 | 0 | 0% | 0% | (15.9%) | 2.3 | 11.4 |  |
| COc1cccc(C2(O)CCCCC2CN(C)C)c1 (centres unmarked) [Tramadol HCl] | (25.6%) | 0 | (2.6%) | (35.9%) | (5.1%) | (7.7%) | (2.6%) |  | (66.7%) | (7.7%) | 0 | 0 | 0 | (2.6%) | (2.6%) |  | 2.5 | 12.8 | two subjects experienced seizures |
